Assay results published in US9085576B2 (AMGEN INC., priority 2013, dated 2015).

Experiments:
Cathepsin D (Cat D) = Cathepsin D (Cat D) (Homo sapiens (Human), UniProt P07339); assay: In vitro enzymatic Cathepsin D (Cat D) FRET assay; type: biochemical; conditions: read-out: CatD IC50
BACE = BACE (Homo sapiens (Human), UniProt P56817); assay: In vitro BACE cell-based assay (Aβ40 in conditioned medium, sandwich ELISA)
[1] = target: Beta Secretase enzyme (BACE) (Homo sapiens (Human), UniProt P56817); assay: In vitro enzymatic BACE FRET assay; type: biochemical; conditions: read-out: BACE1 Enzyme assay IC50
Beta Secretase enzyme (BACE), sequence (P56817 46-501): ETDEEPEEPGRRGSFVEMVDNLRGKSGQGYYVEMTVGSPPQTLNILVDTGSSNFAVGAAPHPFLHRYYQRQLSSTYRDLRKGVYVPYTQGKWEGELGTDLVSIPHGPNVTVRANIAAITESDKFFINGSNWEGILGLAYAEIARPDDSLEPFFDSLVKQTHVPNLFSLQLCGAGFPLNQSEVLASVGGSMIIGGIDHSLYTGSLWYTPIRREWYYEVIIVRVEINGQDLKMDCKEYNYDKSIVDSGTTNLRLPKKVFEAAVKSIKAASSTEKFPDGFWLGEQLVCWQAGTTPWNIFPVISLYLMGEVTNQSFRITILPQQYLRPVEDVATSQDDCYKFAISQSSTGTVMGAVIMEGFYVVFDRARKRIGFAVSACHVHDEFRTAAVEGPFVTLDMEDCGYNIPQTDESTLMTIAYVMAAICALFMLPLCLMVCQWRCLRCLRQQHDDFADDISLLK

BACE, sequence (P56817 46-501, species assumed): as the sequence (P56817 46-501) above
Cathepsin D (Cat D), sequence (P07339 65-412, species assumed): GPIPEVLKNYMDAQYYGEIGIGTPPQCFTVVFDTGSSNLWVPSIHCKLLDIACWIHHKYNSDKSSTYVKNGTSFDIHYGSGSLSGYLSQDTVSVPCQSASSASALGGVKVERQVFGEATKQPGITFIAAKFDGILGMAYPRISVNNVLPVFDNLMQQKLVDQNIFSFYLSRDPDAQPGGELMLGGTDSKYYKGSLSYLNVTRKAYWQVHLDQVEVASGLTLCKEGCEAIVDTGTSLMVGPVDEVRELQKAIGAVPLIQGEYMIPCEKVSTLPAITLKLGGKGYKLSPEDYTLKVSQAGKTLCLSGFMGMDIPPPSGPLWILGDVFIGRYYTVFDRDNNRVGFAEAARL

| Structure (SMILES) | IC50 (Cathepsin D (Cat D)) [µM] | IC50 (BACE) [µM] | IC50 [1] [nM] |
| --- | --- | --- | --- |
| COc1cc(C#N)cnc1C(=O)Nc1cc(Cl)c(F)c([C@@]2(CF)N=C(N)O[C@@H]3C[C@@H]32)c1 [Example 86, N-(3-((1R,5S,6R)-3-amino-5-(fluoromethyl)-2-oxa-4-azabicyclo[4.1.0]hept-3-en-5-yl)-5-chloro-4-fluorophenyl)-5-cyano-3-methoxypicolinamide] | 892 | 0.0094 | 75.9 |
| Cc1cc(OC(F)F)cnc1C(=O)Nc1cc(Cl)c(F)c([C@@]2(CF)N=C(N)O[C@@H]3C[C@@H]32)c1 [Example 87, N-(3-((1R,5S,6R)-3-amino-5-(fluoromethyl)-2-oxa-4-azabicyclo[4.1.0]hept-3-en-5-yl)-5-chloro-4-fluorophenyl)-5-(difluoromethoxy)-3-methylpicolinamide] | 164 | 0.0135 | 32.3 |
| N#Cc1ccc(C(=O)Nc2cc(Cl)c(F)c([C@@]3(CF)N=C(N)O[C@@H]4C[C@@H]43)c2)nc1 [Example 88, N-(3-((1R,5S,6R)-3-amino-5-(fluoromethyl)-2-oxa-4-azabicyclo[4.1.0]hept-3-en-5-yl)-5-chloro-4-fluorophenyl)-5-cyanopicolinamide] | 302 | 0.0098 | 29.4 |
| COc1cnc(C(=O)Nc2cc(Cl)c(F)c([C@@]3(CF)N=C(N)O[C@@H]4C[C@@H]43)c2)c(C)n1 [Example 89, N-(3-((1R,5S,6R)-3-amino-5-(fluoromethyl)-2-oxa-4-azabicyclo[4.1.0]hept-3-en-5-yl)-5-chloro-4-fluorophenyl)-5-methoxy-3-methylpyrazine-2-carboxamide] | 574 | 0.0245 | 73.1 |
| Cc1cc(C#N)cnc1C(=O)Nc1cc(Cl)c(F)c([C@@]2(CF)N=C(N)O[C@@H]3C[C@@H]32)c1 [Example 91, N-(3-((1R,5S,6R)-3-amino-5-(fluoromethyl)-2-oxa-4-azabicyclo[4.1.0]hept-3-en-5-yl)-5-chloro-4-fluorophenyl)-5-cyano-3-methylpicolinamide] | 260 | 0.0073 | 50.6 |
| NC1=N[C@](c2cc(NC(=O)c3ccc(Cl)cn3)ccc2Cl)(C(F)F)[C@@H]2C[C@@H]2O1 [Example 92, N-(3-((1S,5R,6S)-3-amino-5-(difluoromethyl)-2-oxa-4-azabicyclo[4.1.0]hept-3-en-5-yl)-4-chlorophenyl)-5-chloropicolinamide] | 770 | > 15.6 | 17000 |
| COc1ccc(C(=O)Nc2ccc(Cl)c([C@@]3(C(F)F)N=C(N)O[C@@H]4C[C@@H]43)c2)nc1 [Example 100, N-(3-((1R,5S,6R)-3-amino-5-(difluoromethyl)-2-oxa-4-azabicyclo[4.1.0]hept-3-en-5-yl)-4-chlorophenyl)-5-methoxypicolinamide] | 190 | 0.0209 | 61.1 |
| COc1cnc(C(=O)Nc2ccc(Cl)c([C@@]3(C(F)F)N=C(N)O[C@@H]4C[C@@H]43)c2)c(C)c1 [Example 101, N-(3-((1R,5S,6R)-3-amino-5-(difluoromethyl)-2-oxa-4-azabicyclo[4.1.0]hept-3-en-5-yl)-4-chlorophenyl)-5-methoxy-3-methylpicolinamide] | 258 | 0.0598 | 97.1 |
| NC1=N[C@@](c2cc(NC(=O)c3cnc(OCc4cocn4)cn3)ccc2Cl)(C(F)F)[C@H]2C[C@H]2O1 [Example 102, N-(3-((1R,5S,6R)-3-amino-5-(difluoromethyl)-2-oxa-4-azabicyclo[4.1.0]hept-3-en-5-yl)-4-chlorophenyl)-5-(oxazol-4-ylmethoxy)pyrazine-2-carboxamide] | 592 | 0.013 | 35.6 |
| COc1cnc(C(=O)Nc2ccc(F)c([C@@]3(C(F)F)N=C(N)O[C@@H]4C[C@@H]43)c2)nc1 [Example 103, N-(3-((1R,5S,6R)-3-amino-5-(difluoromethyl)-2-oxa-4-azabicyclo[4.1.0]hept-3-en-5-yl)-4-fluorophenyl)-5-methoxypyrimidine-2-carboxamide] | 763 | 0.0574 | 122 |
| COc1cnc(C(=O)Nc2ccc(Cl)c([C@@]3(C(F)F)N=C(N)O[C@@H]4C[C@@H]43)c2)nc1 [Example 104, N-(3-((1R,5S,6R)-3-amino-5-(difluoromethyl)-2-oxa-4-azabicyclo[4.1.0]hept-3-en-5-yl)-4-chlorophenyl)-5-methoxypyrimidine-2-carboxamide] | 374 | 0.0339 | 87.3 |
| NC1=N[C@@](c2cc(NC(=O)c3nn(C(F)F)cc3Cl)cc(F)c2F)(C(F)F)[C@H]2C[C@H]2O1 [Example 114, N-(3-((1R,5S,6R)-3-amino-5-(difluoromethyl)-2-oxa-4-azabicyclo[4.1.0]hept-3-en-5-yl)-4,5-difluorophenyl)-4-chloro-1-(difluoromethyl)-1H-pyrazole-3-carboxamide] | 158 | 0.0198 | 9.8 |
| NC1=N[C@@](CF)(c2cc(NC(=O)c3ccc(Cl)cn3)ccc2F)[C@@H]2C[C@@H]2O1 [Example 118, N-(3-((1S,5R,6S)-3-amino-5-(fluoromethyl)-2-oxa-4-azabicyclo[4.1.0]hept-3-en-5-yl)-4-fluorophenyl)-5-chloropicolinamide] | 1280 | 0.221 | 1560 |
| NC1=N[C@@](c2cc(NC(=O)c3ncc(Cl)cn3)ccc2F)(C(F)F)[C@H]2C[C@H]2O1 [Example 119, N-(3-((1R,5S,6R)-3-amino-5-(difluoromethyl)-2-oxa-4-azabicyclo[4.1.0]hept-3-en-5-yl)-4-fluorophenyl)-5-chloropyrimidine-2-carboxamide] | 2990 | 0.0524 | 55.9 |
| Cc1nc(OCC(F)(F)F)cnc1C(=O)Nc1ccc(F)c([C@@]2(C(F)F)N=C(N)O[C@@H]3C[C@@H]32)c1 [Example 120, N-(3-((1R,5S,6R)-3-amino-5-(difluoromethyl)-2-oxa-4-azabicyclo[4.1.0]hept-3-en-5-yl)-4-fluorphenyl)-3-methyl-5-(2,2,2-trifluoroethoxy)pyrazine-2-carboxamide] | 351 | 0.247 | 50 |
| Cc1cc(C(F)F)cnc1C(=O)Nc1ccc(Cl)c([C@@]2(CF)N=C(N)O[C@@H]3C[C@@H]32)c1 [Example 122, N-(3-((1R,5S,6R)-3-amino-5-(fluoromethyl)-2-oxa-4-azabicyclo[4.1.0]hept-3-en-5-yl)-4-chlorophenyl)-5-(difluoromethyl)-3-methylpicolinamide] | 1070 | 0.0148 | 99 |
| Cc1cc(C(F)(F)F)cnc1C(=O)Nc1ccc(Cl)c([C@@]2(CF)N=C(N)O[C@@H]3C[C@@H]32)c1 [Example 125, N-(3-((1R,5S,6R)-3-amino-5-(fluoromethyl)-2-oxa-4-azabicyclo[4.1.0]hept-3-en-5-yl)-4-chlorophenyl)-3-methyl-5-(trifluoromethyl) picolinamide] | > 400 | 0.0086 | 80.6 |
| Cc1cc(OC(F)F)cnc1C(=O)Nc1ccc(Cl)c([C@@]2(CF)N=C(N)O[C@@H]3C[C@@H]32)c1 [Example 126, N-(3-((1R,5S,6R)-3-amino-5-(fluoromethyl)-2-oxa-4-azabicyclo[4.1.0]hept-3-en-5-yl)-4-chlorophenyl)-5-(difluoromethoxy)-3-methylpicolinamide] | 1200 | 0.0146 | 83.5 |
| COCc1cc(Cl)cnc1C(=O)Nc1ccc(Cl)c([C@@]2(CF)N=C(N)O[C@@H]3C[C@@H]32)c1 [Example 128, N-(3-((1R,5S,6R)-3-amino-5-(fluoromethyl)-2-oxa-4-azabicyclo[4.1.0]hept-3-en-5-yl)-4-chlorophenyl)-5-chloro-3-(methoxymethyl) picolinamide] | 1000 | 0.0161 | 50.8 |
| NC1=N[C@@](c2cc(NC(=O)c3ncc(Cl)cc3F)ccc2F)(C(F)F)[C@H]2C[C@H]2O1 [Example 129] | 1280 | 0.0403 | 38.9 |
| COc1cnc(C(=O)Nc2ccc(F)c([C@@]3(C(F)F)N=C(N)O[C@@H]4C[C@@H]43)c2)c(C)c1 [Example 131, N-(3-((1R,5S,6R)-3-amino-5-(difluoromethyl)-2-oxa-4-azabicyclo[4.1.0]hept-3-en-5-yl)-4-fluorophenyl)-5-methoxy-3-methylpicolinamide] | 342 | 0.0809 | 185 |
| Cc1cc(NC(=O)c2ncc(C#N)cc2Cl)cc([C@@]2(C(F)F)N=C(N)O[C@@H]3C[C@@H]32)c1F [Example 133] | 558 | 0.0158 | 23 |
| COc1cc(Cl)cnc1C(=O)Nc1cc(C)c(F)c([C@@]2(C(F)F)N=C(N)O[C@@H]3C[C@@H]32)c1 [Example 134, N-(3-((1R,5S,6R)-3-amino-5-(difluoromethyl)-2-oxa-4-azabicyclo[4.1.0]hept-3-en-5-yl)-4-fluoro-5-methylphenyl)-5-chloro-3-methoxypicolinamide] | 1110 | 0.0604 | 130 |
| Cc1cc(NC(=O)c2ncc(Cl)cc2Cl)cc([C@@]2(C(F)F)N=C(N)O[C@@H]3C[C@@H]32)c1F [Example 135, N-(3-((1R,5S,6R)-3-amino-5-(difluoromethyl)-2-oxa-4-azabicyclo[4.1.0]hept-3-en-5-yl)-4-fluoro-5-methylphenyl)-3,5-dichloropicolinamide] | 494 | 0.0199 | 25.6 |
| Cc1cc(C#N)cnc1C(=O)Nc1cc(F)c(Cl)c([C@@]2(CF)N=C(N)O[C@@H]3C[C@@H]32)c1 [Example 138, N-(3-((1R,5S,6R)-3-amino-5-(fluoromethyl)-2-oxa-4-azabicyclo[4.1.0]hept-3-en-5-yl)-4-chloro-5-fluorophenyl)-5-cyano-3-methylpicolinamide] | 662 | 0.0151 | 36.2 |
